Data reported in patent US6548085B1, “Insecticidal compositions and method of controlling insect pests using same” (Woodstream Corporation, priority 1998, dated 2003).

Key:
Assay type in all cases: in vivo
German cockroaches = experiment: Direct spray kill time test on German cockroaches; conditions: aqueous solution, sprayed 3 seconds, entry of 300 = no deaths during that time
Text: (§1) To determine the effectiveness of an essential oil/sodium lauryl sulfate aerosol spray according to this invention as an insecticide when applied directly by a conventional pump spray on German cockroaches, American cockroaches and various ant species.
(§2) Insects shall be healthy and undeformed. Only adult male and female insects shall be used for testing purposes. The insects shall be contained in a 21.5×15.5×5.5 inch testing arena.
(§3) 1. Gather 10 adult insects, 5 males and 5 females.
(§4) 2. Place 1 insect into the testing arena.
(§5) 3. Select spray to be tested. Spray cockroaches for 3 seconds, ants for 2 seconds.
(§6) 4. Record kill time in seconds.
(§7) 5. Wipe away any spray residue before beginning another test.
(§8) 6. Repeat steps 2, 3, 4 and 5 until all test insects are used.
(§9) 7. Record date of testing, type of test material used, type of insect used, kill time in seconds, and whether or not test specimen meets standard.
(§10) Following this protocol, aqueous solutions of selected essential oils were prepared at different concentrations, both with and without the addition of sodium lauryl sulfate, and tested for their insecticidal activity (kill time in seconds) against German and American cockroaches and black or pavement ants. The results are tabulated below and illustrated graphically in the accompanying drawings.
(§11) ^3 The tests shown in the Tables utilized the active ingredients in an aqueous solution dispensed from a standard pump-type sprayer. Shorter kill times result when the insecticide is aerosolized, i.e., dispensed from a pressurized aerosol can using a propellant such as carbon dioxide.

American cockroaches = experiment: Direct spray kill time test on American cockroaches; conditions: aqueous solution, sprayed 3 seconds, entry of 300 = no deaths during that time
Text: as §1, §2, §3, §4, §5, §6, §7, §8, §9, §10, §11

Black Ants = experiment: Direct spray kill time test on black ants; conditions: aqueous solution, sprayed 2 seconds, entry of 300 = no deaths during that time
Text: as §1, §2, §3, §4, §5, §6, §7, §8, §9, §10, §11

Pavement Ants = experiment: Direct spray kill time test on pavement ants; conditions: aqueous solution, pump sprayer, sprayed 2 seconds, entry of 300 = no deaths during that time
Text: as §1, §2, §3, §4, §5, §6, §7, §8, §9, §10, §11

[1] = cinnamon oil series, pump sprayer
[2] = citronella oil series, pump sprayer
[3] = cornmint oil series, standard pump-type sprayer
[4] = grapefruit oil series, pump sprayer
[5] = peppermint oil series, pump sprayer
[6] = tangerine oil series, pump sprayer
[7] = orange sweet oil series, pump sprayer

Measured: Kill Time

CCCCCCCCCCCCOS(=O)(=O)[O-].[Na+] [100% SLS, sodium lauryl sulfate]
> 300^1 Seconds: German cockroaches; [3]
> 300 s: German cockroaches; [1] | German cockroaches; [2] | German cockroaches; [4] | German cockroaches; lemon oil series, pump sprayer | German cockroaches; lime oil series, pump sprayer | German cockroaches; orange sweet oil series, pump sprayer, repetitions of 10% OSO mixture not performed | German cockroaches; [5] | German cockroaches; [6] | American cockroaches; [1] | American cockroaches; [2] | American cockroaches; [3] | American cockroaches; [4] | American cockroaches; lemon oil series, pump sprayer | American cockroaches; lime oil series, pump sprayer | American cockroaches; [7] | American cockroaches; [5] | American cockroaches; [6] | Black Ants; [1] | Black Ants; [3] | Black Ants; [7] | Pavement Ants; citronella oil series | Pavement Ants; grapefruit oil series | Pavement Ants; lemon oil series | Pavement Ants; lime oil series | Pavement Ants; peppermint oil series | Pavement Ants; tangerine oil series
